According to patent US10882882B2, “Post fermented tea-derived kaempferol-based compound” (AMOREPACIFIC CORPORATION, priority 2016, dated 2021):

Biological target: T1, beta amyloid (Aβ1-42) (Homo sapiens, UniProt P05067)
T1 construct: beta amyloid (Aβ1-42, AnaSpec Inc, USA); purchased AnaSpec Inc, USA
Assay: Inhibition of beta amyloid aggregation, fluorescence analysis (ThioflavinT assay)
Assay type: biochemical
Details: for Increased RFU (% of Pos. Cont.): Pos. Cont. (beta amyloid only) = 100; for inhibition of beta amyloid aggregation as compared with the positive control group: positive control (only beta amyloid, no compound) taken as 100%
Method: The effect of kaempferol3-O-[2-O″-(E)-p-coumaroyl][beta-D-glucopyranosyl-(1→3)-O-alpha-L-rhamnopyranosyl-(1→6)-O-beta-D-glucopyranoside] on inhibition of beta amyloid aggregation was confirmed by the fluorescence analysis (ThioflavinT assay). Specifically, beta amyloid (Aβ1-42, AnaSpec Inc, USA) was obtained and used at a concentration of 0.1 mg/ml and stored at −80° C. before use. Morin (20 μM), phenol red (20 μM), and kaempferol3-O-[2-O″-(E)-p-coumaroyl][beta-D-glucopyranosyl-(1→3)-O-alpha-L-rhamnopyranosyl-(1→6)-O-beta-D-glucopyranoside] (1 mg/ml) were respectively diluted with DMSO so as to be adjusted to the concentrations. In order to specify the degree of inhibition of Aβ1-42 aggregation, each of the compounds prepared at the above concentrations was diluted with 50 μL of 0.01 M sodium phosphate buffer solution to have a concentration of 10 μM, then 40 μL of 0.1 mg/ml of Aβ1-42 was added thereto, and then 10 μl of 2 mM thioflavinT was added thereto, and fluorescence was measured using a fluorescence spectrometer (RF-5300PC, SHIMADZU CORPORATION, Japan) at 37° C. for 150 minutes at intervals of 5 minutes. In the above table, “RFU” denotes the relative fluorescence unit, and “Increased RFU” denotes the amount of aggregated beta amyloid, and “Increased RFU (% of Pos.Cont.)” denotes the percentage value of the amount of aggregated beta amyloid with respect to that of the positive control group. “Novel substance 33” denotes kaempferol3-O-[2-O″-(E)-p-coumaroyl][beta-D-glucopyranosyl-(1→3)-O-alpha-L-rhamnopyranosyl-(1→6)-O-beta-D-glucopyranoside].

[1] = compound 10 μM, Aβ1-42 0.1 mg/ml, 37° C., 150 minutes

T1 sequence (P05067 672-713 limits assumed): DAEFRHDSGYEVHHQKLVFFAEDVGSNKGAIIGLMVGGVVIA

| Compound | Increased RFU (% of Pos. Cont.) [1] | inhibition of beta amyloid aggregation as compared with the positive control group | Increased RFU (amount of aggregated beta amyloid) (compound 10 μM, Aβ1-42 0.1 mg/ml, thioflavinT, 37° C., 150 minutes) |
| --- | --- | --- | --- |
| O=S1(=O)OC(c2ccc(O)cc2)(c2ccc(O)cc2)c2ccccc21 [Phenol Red] | 93.6% | 6.4% | – |
| O=c1c(O)c(-c2ccc(O)cc2O)oc2cc(O)cc(O)c12 [Morin] | 78.6% | 21.4% | 11471 RFU |
